Starred links: 1 amine or outer side, 2 acyl side, 3 side chain; linkers in the order of their positions; H or OH if unused. Positions of bridges follow the written chain, without caps; N, C: chain ends. Non-standard residues stand in square brackets, D forms with d. Residues, ends and D or L forms follow the SMILES beside them. *: point of attachment. Leu(3R-OH,Nα-propionyl) = CCC(=O)N[C@H](C(=O)*)[C@H](O)C(C)C; X1 = CC(C)[C@@H](O[*:3])[C@H](N[*:1])C(=O)[*:2]; NMeT = CN[C@H](C(=O)O)[C@@H](C)O; dPhLac = O=C(O)[C@H](O)Cc1ccccc1; NMeA = CN[C@@H](C)C(=O)O; NMeDha = C=C(NC)C(=O)O
Legend:
[1] = molecular target: T1, chimeric Gαi/q protein (FR-sensitive Gαi mutant) (Homo sapiens, UniProt P63096, H188P/K180P/K54R/T187Y/V185I/V50I/V72L/Y69F); assay: Radioligand binding ([3H]PSB-15900 homologous competition, filtration assay); conditions: chimeric Gαi/q on TALON beads, 5 μg protein; [3H]PSB-15900 5 nM; unlabeled FR 0.003-30 μM; 2 h, 4 °C; 50 mM Tris-HCl pH 7.4; one-site homologous equation; mean ± SD of 3 independent experiments in duplicates
T1 construct: made in house; host or cells: E. coli (pET16b)
Procedure: The purified chimeric Gαi/q protein was preincubated with TALON immobilized metal affinity chromatography (IMAC) resin beads (Takara Bio) for 1–2 h at 4 °C with gentle shaking (0.025 μL beads per 0.1 mL of protein solution in 50 mM Tris–HCl, pH 7.4; final protein amount per sample: 5 μg). Each sample contained 70 μL of assay buffer (50 mM Tris–HCl, pH 7.4), 5 μL of dimethyl sulfoxide (DMSO) or the test compound (dissolved in DMSO), 50 μL of [^3H]PSB-15900 (FR-derived radioligand; 28 Ci/mmol; Pharmaron, Cardiff, UK)[14] in assay buffer (final concentration: 5 nM) and 125 μL of protein solution. Total binding of [^3H]PSB-15900 was determined using 5 μL of DMSO, and non-specific binding was determined using 5 μL of unlabeled FR900359 (final concentration: 5 μM). For competition binding experiments, dilutions from 30 μM to 0.003 μM of unlabeled FR900359, dissolved in DMSO, were added. Incubation was performed for 2 h at 4 °C with gentle shaking. […]
Multiple regions of the protein are either directly involved in binding of cyclodepsipeptide inhibitors, as shown by structural data on bound YM,[23] or show an indirect response to binding of the inhibitor, as proposed by MD simulations.[13,25] To investigate the conformational response of the G protein to inhibitor binding, structural alterations of the G protein itself must be detected. […]

Gαi/q = assay: Structural response to inhibitor binding by DNP-enhanced ssNMR (13C-NCOCX, unique pair labeling); conditions: inhibitor : protein 1.5 : 1, 4 °C overnight, nominal 105 K
Procedure: The protein response to inhibitor binding was studied by HNCO(CX) experiments with 20 ms mixing time recorded on DNP samples of frozen Gαi/q protein solution. The polarizing agent AsymPolPOK[36] was dried from a chloroform : methanol (1 : 1) stock solution to form a film that was resuspended with 1 mg of protein solution that was concentrated to a volume of 15 μL, subsequently 15 μL of d8-glycerol was added. The final concentration of radical in the mixture with the protein sample in the 3.2 mm NMR rotor was 10 mM. The samples were measured at a DNP setup consisting of a 400 MHz Avance Neo spectrometer (Bruker) with a 3.2 mm Cryo MAS HCN probe (Bruker) and a 263 GHz Gyrotron as microwave source. All experiments were done at a nominal temperature of 105 K. A MAS rate of 8 kHz and proton decoupling of 100 kHz were chosen. To investigate the effects of inhibitor binding, the protein solution was incubated with unlabeled FR or YM from a 10 mM DMSO stock solution at an inhibitor to protein molar ratio of 1.5 : 1 at 4 °C overnight. To study the effects of nucleotide binding, 5 μL of GDP was added to the samples from a 17 mM solution of GDP : MgCl2 (3 : 1 molar ratio) directly into the rotor. The GTP-bound state was generated by subsequent addition of 2 μL of GTP [0.1 M] and 2 μL AlF4 salt solution (150 mM MgCl2, 75 mM NaF, 15 mM AlCl3). DNP enhancement was measured by comparison of ^13C-CP spectra with and without microwave irradiation. Referencing was done indirectly using the right peak of d8-glycerol at 64.78 ppm.
In order to collect information about conformational changes in a spatially resolved manner, a unique pair labeling approach was chosen,[50] resulting in signals in the NMR spectra from a unique pair of neighboring amino acids in NCO type experiments. […] To obtain sufficient signal intensity in the experiments, spectra were recorded using DNP-enhanced ssNMR. […] Under those conditions, the full sampled conformational space is conserved and reflected in NMR line shapes, which can then be analyzed. […]

T1 sequence (P63096 whole entry V50I/K54R/Y69F/V72L/K180P/V185I/T187Y/H188P): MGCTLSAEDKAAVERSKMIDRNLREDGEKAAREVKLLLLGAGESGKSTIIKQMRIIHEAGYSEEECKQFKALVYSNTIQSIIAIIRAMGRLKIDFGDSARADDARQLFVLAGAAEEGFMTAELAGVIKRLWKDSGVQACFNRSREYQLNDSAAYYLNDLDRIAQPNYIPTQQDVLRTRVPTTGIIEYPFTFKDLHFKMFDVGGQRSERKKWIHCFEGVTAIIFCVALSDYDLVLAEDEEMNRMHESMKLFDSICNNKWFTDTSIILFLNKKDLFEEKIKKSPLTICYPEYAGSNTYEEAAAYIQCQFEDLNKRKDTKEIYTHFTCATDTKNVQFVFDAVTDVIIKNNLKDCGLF

Molecule	Kd [1]	response of switch III (R242-M243) to inhibitor binding (Gαi/q; RM-pair)	response of α5 helix (V335-F336) to inhibitor binding (Gαi/q; VF-pair)	response of switch I (V179-P180) to inhibitor binding (Gαi/q; VP-pair)
C=C1C(=O)N[C@@H](C)C(=O)N(C)[C@@H](C)C(=O)N[C@@H]([C@H](OC(=O)[C@@H](NC(=O)CC)[C@H](O)C(C)C)C(C)C)C(=O)N(C)[C@@H]([C@@H](C)OC)C(=O)O[C@H](C(C)C)[C@H](NC(C)=O)C(=O)O[C@H](Cc2ccccc2)C(=O)N1C [FR, FR900359] (Ac-[X1][dPhLac][NMeDha]A[NMeA][X1](Leu(3R-OH,Nα-propionyl))[NMeT](Me); ester 1-C)	271 ± 69 nM			
YM-254890		no effects in switch III	minor effects	clear narrowing of the ^13C valine signals

— paper PMC11323312, “Structural response of G protein binding to the cyclodepsipeptide inhibitor FR900359 probed by NMR spectroscopy” (Chemical Science, 2024)
